This series in a line: Solubility observations in D2O / water. The class given is physicochemical. The protocol: The supernatants were characterized by DOSY NMR and UV-Vis. ^1H-NMR was used to observe the amount of drug loaded into the RNTs at various time points. All the NMR experiments were conducted on a Varian Direct Drive 600 MHz spectrometer with a dual broadband probe. UV-vis spectra were recorded on an Agilent 8453. After this series of spectral analyses were completed, CD3OD was evaporated using a stream of nitrogen and replaced with the same volume of deuterated water (D2O).
Each solution (3 mL) was placed in a 1 cm×1 cm cuvette for UV-Vis experiments. In another series of experiments the solutions were prepared at the same concentration in D2O and analyzed by UV-Vis spectroscopy.

Entries after “also recorded” stand apart in the source; their conditions may differ.

As to `C[C@@H]1C[C@H]2[C@@H]3CCC4=CC(=O)C=C[C@]4(C)[C@@]3(F)[C@@H](O)C[C@]2(C)[C@@]1(O)C(=O)CO` [DEX, dexamethasone], the solubility in water entry is “insoluble; also recorded: precipitates in water”.

The values above are taken from US20120171121A1, “Rosette Nanotubes as Drug Delivery Agents” (Brown University, priority 2011, published 2012).
